# Target: Histone deacetylase 4 (Homo sapiens, UniProt P56524)
# Assay: HDAC4 Biochemical: The Class I HDAC activity of Class IIa Histone Deacetylase (HDAC) inhibitors was quantified by measuring the cellular histone deacetylase enzymatic activity using the fluorogenic substrate, Boc-Lys(Ac)-AMC. This was performed according to the procedure in Example 17, using Boc-Lys(Ac)-AMC substrate in place of Boc-Lys(TFA)-AMC.
# Chain of Histone deacetylase 4 (P56524 whole entry): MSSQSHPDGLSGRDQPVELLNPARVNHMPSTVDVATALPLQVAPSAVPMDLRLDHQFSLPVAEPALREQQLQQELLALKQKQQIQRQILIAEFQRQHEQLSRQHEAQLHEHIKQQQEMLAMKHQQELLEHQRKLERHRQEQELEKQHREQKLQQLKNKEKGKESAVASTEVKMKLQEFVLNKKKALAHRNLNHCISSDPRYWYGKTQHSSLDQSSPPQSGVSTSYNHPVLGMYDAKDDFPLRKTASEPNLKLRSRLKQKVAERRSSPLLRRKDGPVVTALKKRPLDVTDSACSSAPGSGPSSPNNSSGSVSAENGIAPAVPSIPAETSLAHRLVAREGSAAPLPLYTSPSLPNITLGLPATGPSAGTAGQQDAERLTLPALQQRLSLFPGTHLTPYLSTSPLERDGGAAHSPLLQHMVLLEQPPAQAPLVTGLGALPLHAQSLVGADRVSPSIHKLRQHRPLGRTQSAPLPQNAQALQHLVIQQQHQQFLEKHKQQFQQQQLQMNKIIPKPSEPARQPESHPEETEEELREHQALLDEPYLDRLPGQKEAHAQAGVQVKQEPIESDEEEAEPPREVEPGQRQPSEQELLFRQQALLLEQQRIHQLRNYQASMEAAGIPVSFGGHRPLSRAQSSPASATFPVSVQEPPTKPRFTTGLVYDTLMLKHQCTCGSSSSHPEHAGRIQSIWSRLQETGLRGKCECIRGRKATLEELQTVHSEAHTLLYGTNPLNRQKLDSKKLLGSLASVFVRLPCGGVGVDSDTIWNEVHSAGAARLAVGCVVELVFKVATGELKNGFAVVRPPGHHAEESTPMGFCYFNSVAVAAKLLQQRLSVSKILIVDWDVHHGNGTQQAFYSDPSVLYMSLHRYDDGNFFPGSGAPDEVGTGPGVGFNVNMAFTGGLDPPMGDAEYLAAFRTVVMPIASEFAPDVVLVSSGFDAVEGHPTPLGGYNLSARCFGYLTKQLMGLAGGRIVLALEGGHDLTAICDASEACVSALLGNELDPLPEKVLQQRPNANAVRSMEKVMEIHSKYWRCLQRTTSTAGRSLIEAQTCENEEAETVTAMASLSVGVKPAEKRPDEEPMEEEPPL
smiles,measurement,value
O=C(NC1(CN2CC3CCC(C3)C2)CC1)c1ccc(-c2noc(C(F)(F)F)n2)cc1,IC50,330 nM

# From ChEMBL document CHEMBL5725458, “Histone deacetylase inhibitors and compositions and methods of use thereof” (2018)
